Experimental data: ChEMBL document CHEMBL1201862, “PubChem BioAssay data set” (2004)
Activity calls are given as the source filed them.

Tests used:
Streptokinase A = molecular target: T1, Streptokinase A (Streptococcus pyogenes serotype M1, UniProt P10520); assay: viability-normalized secreted streptokinase activity reduction – plasminogen activation absorbance, OD405, dose response (AID 1914); type: functional, Streptococcus pyogenes M1 GAS;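 note: secreted streptokinase activity via plasminogen activation per viability signal from cell pellet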
T1 sequence (P10520 whole entry): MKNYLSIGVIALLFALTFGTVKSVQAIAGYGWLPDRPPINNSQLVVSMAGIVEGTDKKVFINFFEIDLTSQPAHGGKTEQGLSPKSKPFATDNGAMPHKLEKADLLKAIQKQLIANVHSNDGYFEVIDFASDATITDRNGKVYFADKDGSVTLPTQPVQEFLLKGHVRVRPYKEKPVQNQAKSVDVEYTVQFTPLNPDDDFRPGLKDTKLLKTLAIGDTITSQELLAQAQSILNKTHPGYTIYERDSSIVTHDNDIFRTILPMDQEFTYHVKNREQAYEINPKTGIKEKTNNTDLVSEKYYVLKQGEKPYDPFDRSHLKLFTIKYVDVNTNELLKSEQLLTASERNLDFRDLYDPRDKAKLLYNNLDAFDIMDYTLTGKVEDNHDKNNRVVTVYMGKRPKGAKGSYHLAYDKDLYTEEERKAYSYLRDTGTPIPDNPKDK

[1] = molecular target: ATP-dependent molecular chaperone HSP82 (Candida albicans (strain WO-1) (Yeast), UniProt C4YTQ8); assay: steroid-induced GRE reporter decrease in yeast – S. cerevisiae, luminescence, Hsp90 inhibitor project, dose response (AID 2400); type: functional, cell-based;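 note: beta-galactosidase luminescence from glucocorticoid response element reporter as proxy for Hsp90 function; inhibitor potency where signal loss means Hsp90 inhibition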
[2] = NIH-3T3 fibroblast cytotoxicity, dose response, cytotoxicity control, cell-based, fluorescence, Alamar Blue, secondary assay (AID 2327); type: functional;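 note: NIH-3T3 mouse fibroblasts cultured with fluconazole at 8 µg/mL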
[3] = NIH3T3 cell viability loss – ATP luminescence, mouse fibroblasts, counter-screen, dose response (AID 2010); type: functional, cell-based;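 note: cells exposed to compound for about 90 hours before reading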
[4] = fluconazole-exposed Candida albicans growth modulators – fluorescence, retest, confirmation (AID 2467); type: functional, cell-based
[5] = viability of PTEN-deleted HCT116 cells – cell-based, HCT116 PTEN knockout, dose response (AID 1047); type: functional;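 note: HCT116 colon tumor cells with PTEN knocked out; cells exposed to compound for 60 hours before readout; potency for loss of cell viability measured by luminescence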
[6] = tested on: Streptococcus sp. 'group A'; assay: Streptococcus pyogenes SK(-)GAS viability under kanamycin – luminescence, BacTiterGlo, confirmation, counter-screen for streptokinase expression inhibitor project, dose response (AID 1900); type: functional, organism-based
[7] = Trypanosoma cruzi growth suppression in host cells – NIH3T3 host cells, beta-gal luminescence, confirmation (AID 2044); type: functional, cell-based;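 note: intracellular parasites grown in NIH/3T3 mouse fibroblasts as host cells; luminescent beta-galactosidase reporter signal from transgenic T. cruzi replicating inside host cells; inhibitors lower the luminescence signal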
Streptococcus = assay: GAS UMAA2166 growth inhibition – luminescence, BacTiterGlo, counter-screen for streptokinase expression inhibitor project, dose response (AID 1915); type: functional, organism-based;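 note: potency for reduction of bacterial viability or growth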
[8] = molecular target: T2, Serine/threonine-protein phosphatase (Candida dubliniensis (strain CD36 / CBS 7987 / NCPF 3949 / NRRLY-17841) (Yeast), UniProt B9W6M3); assay: blockers of CaCl2-induced CDRE-lacZ signaling – S. cerevisiae, luminescence, secondary, dose response (AID 2388); type: functional, cell-based;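 note: yeast reporter cells carrying a calcineurin-responsive lacZ construct stimulated with calcium chloride; luminescent beta-galactosidase reporter signal in whole cells rather than isolated phosphatase activity; potency for inhibition where a drop in reporter signal means calcineurin blockade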
T2 sequence (B9W6M3 whole entry): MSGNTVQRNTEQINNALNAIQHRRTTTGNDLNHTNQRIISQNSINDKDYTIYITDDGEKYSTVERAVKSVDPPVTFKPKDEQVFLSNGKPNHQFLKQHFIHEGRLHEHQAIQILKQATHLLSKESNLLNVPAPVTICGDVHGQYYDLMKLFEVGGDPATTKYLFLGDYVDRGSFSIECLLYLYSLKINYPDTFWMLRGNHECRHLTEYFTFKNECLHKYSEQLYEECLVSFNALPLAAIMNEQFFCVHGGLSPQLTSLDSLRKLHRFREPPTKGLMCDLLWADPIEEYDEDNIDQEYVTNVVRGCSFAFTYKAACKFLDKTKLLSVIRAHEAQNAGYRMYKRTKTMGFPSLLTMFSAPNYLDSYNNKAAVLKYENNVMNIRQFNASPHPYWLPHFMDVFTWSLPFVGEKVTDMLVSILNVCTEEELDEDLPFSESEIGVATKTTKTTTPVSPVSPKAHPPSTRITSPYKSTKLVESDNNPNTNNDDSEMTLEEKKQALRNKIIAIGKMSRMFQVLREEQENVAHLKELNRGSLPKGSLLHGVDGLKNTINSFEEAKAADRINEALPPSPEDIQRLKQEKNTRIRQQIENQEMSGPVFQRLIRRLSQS

[9] = viability of HCT116 lacking mutant beta-catenin – cell-based, human colon tumor, dose response (AID 1045); type: functional;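 note: HCT116 colon tumor cells with beta catenin knocked out; cells exposed to compound for 60 hours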
[10] = molecular target: T3, Microphthalmia-associated transcription factor (Homo sapiens, UniProt O75030); assay: reducers of TRPM1 reporter luminescence, concentration series – cell-based, SK-MEL-5, cherry-picked, set 3, MITF inhibitor project, dose response (AID 493073); type: functional;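 note: SK-MEL-5 melanoma cells with luciferase driven by the MITF target TRPM1 promoter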
T3 sequence (O75030 whole entry): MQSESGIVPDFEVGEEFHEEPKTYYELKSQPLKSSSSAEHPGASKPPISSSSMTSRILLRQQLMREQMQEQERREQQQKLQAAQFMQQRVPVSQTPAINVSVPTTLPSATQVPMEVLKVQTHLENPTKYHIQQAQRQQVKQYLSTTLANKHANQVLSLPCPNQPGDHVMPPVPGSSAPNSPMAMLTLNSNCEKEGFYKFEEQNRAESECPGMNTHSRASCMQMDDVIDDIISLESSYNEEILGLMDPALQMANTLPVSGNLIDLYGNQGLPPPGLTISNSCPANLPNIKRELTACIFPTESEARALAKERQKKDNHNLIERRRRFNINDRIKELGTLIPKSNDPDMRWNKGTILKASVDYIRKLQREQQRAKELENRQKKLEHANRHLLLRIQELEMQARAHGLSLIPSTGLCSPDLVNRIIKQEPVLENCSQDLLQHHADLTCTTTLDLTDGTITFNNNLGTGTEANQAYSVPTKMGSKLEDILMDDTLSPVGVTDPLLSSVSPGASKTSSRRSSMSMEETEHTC

Bcl-2-related protein A1 [11] = molecular target: T4, Bcl-2-related protein A1 (Mus musculus, UniProt Q07440); assay: small-molecule antagonists of Bfl-1/BH3 interaction – biochemical, TR-FRET, mouse Bfl-1, confirmation (AID 621);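 note: TR-FRET binding of GST-Bfl-1 to FITC-labelled Bid peptide via terbium antibody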
Bcl-2-related protein A1 [12] = molecular target: T4, Bcl-2-related protein A1; assay: Bfl-1 binding inhibitors, SAR follow-up, biochemical, fluorescence polarization (AID 1070)
Estrogen receptor = molecular target: T5, Estrogen receptor (Homo sapiens, UniProt P03372);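 note: potency for inhibiting coactivator peptide recruitment to the receptor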
T5 sequence (P03372 whole entry): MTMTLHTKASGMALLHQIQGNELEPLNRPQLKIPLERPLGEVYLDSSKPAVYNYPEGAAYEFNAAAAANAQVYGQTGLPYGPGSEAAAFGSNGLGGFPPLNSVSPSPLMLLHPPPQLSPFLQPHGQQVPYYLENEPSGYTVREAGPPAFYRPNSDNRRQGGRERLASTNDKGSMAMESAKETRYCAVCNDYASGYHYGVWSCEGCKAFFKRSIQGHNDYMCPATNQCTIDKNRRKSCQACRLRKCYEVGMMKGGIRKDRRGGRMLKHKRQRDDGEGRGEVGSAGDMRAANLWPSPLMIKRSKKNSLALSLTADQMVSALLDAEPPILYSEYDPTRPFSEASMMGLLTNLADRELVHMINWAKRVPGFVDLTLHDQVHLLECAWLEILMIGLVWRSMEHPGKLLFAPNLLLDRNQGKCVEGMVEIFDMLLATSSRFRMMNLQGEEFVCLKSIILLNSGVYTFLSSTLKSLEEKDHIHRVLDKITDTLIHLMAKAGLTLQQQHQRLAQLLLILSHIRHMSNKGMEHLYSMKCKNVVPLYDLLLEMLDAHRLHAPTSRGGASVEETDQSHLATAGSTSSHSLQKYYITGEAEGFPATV

[13] = molecular target: Induced myeloid leukemia cell differentiation protein Mcl-1 (Homo sapiens, UniProt Q07820); assay: blockers of MCL1 binding to BIM peptide – biochemical, fluorescence polarization, BIM-BH3 peptide, 1536-well, dose response (AID 2217)
[14] = molecular target: T6, Voltage-gated N-type calcium channel alpha-1B subunit/Amyloid beta A4 precursor protein-binding family A member 1 (Homo sapiens, UniProt Q00975+Q02410); type: protein assay
Bcl-2-like protein 1 = Bcl-2-like protein 1 (Homo sapiens, UniProt Q07817); assay: blockers of BCLXL peptide binding – biochemical, fluorescence polarization, 1536-well, selectivity assay for MCL1 inhibitor project, dose response (AID 2218)
[15] = molecular target: T6, Voltage-gated N-type calcium channel alpha-1B subunit/Amyloid beta A4 precursor protein-binding family A member 1; type: protein assay; remark: listed apart in the source
Estrogen receptor beta = Estrogen receptor beta (Homo sapiens, UniProt Q92731);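 note: recombinant ER-beta bound to coactivator SRC1 peptide in presence of estradiol agonist; inhibitors block coactivator peptide binding and lower the FRET signal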
Large T antigen = Large T antigen (Simian virus 40, UniProt P03070); type: functional, Betapolyomavirus macacae;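 note: Confirmatory-stage PubChem screen for compounds that inhibit SV40 T antigen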
[16] = molecular target: T7, Zinc finger protein mex-5 (Caenorhabditis elegans, UniProt Q9XUB2); assay: potency of MEX-5 RNA-binding blockers – biochemical, C. elegans, fluorescence polarization, dose response (AID 1960)
T7 sequence (Q9XUB2 whole entry): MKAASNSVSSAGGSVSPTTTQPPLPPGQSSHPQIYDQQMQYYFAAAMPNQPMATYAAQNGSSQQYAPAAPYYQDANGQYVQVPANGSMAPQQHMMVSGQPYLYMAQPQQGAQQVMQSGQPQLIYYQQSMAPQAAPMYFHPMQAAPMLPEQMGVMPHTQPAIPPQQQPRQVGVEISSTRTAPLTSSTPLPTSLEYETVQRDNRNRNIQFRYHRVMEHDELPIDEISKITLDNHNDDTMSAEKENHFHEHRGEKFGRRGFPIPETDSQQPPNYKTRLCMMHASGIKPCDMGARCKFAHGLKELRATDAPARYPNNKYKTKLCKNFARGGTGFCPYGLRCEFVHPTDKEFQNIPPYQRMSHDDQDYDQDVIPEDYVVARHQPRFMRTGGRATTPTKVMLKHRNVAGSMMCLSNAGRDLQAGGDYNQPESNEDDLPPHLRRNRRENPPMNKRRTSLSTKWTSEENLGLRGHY

[17] = antibacterial activity against E. coli NEB5alpha – luminescence, counter-screen for MEX-5/POS-1 RNA-binding inhibitor project, dose response (AID 1959); type: functional
[18] = molecular target: T8, RNA-binding protein pos-1 (Caenorhabditis elegans, UniProt G5EF15); assay: disruptors of C. elegans POS-1 RNA interaction – biochemical, fluorescence polarization, dose response (AID 1964);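 note: purified POS-1 fused to maltose binding protein made in E. coli; potency of compounds blocking POS-1 binding to fluorescent RNA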
T8 sequence (G5EF15 whole entry): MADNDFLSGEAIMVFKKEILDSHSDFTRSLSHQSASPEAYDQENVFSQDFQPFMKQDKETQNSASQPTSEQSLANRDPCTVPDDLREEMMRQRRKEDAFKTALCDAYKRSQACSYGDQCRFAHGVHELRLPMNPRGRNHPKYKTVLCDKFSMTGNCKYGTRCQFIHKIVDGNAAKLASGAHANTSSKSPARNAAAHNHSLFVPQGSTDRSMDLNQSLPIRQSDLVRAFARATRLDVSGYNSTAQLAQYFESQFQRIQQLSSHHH

T6 sequence (Q00975 whole entry): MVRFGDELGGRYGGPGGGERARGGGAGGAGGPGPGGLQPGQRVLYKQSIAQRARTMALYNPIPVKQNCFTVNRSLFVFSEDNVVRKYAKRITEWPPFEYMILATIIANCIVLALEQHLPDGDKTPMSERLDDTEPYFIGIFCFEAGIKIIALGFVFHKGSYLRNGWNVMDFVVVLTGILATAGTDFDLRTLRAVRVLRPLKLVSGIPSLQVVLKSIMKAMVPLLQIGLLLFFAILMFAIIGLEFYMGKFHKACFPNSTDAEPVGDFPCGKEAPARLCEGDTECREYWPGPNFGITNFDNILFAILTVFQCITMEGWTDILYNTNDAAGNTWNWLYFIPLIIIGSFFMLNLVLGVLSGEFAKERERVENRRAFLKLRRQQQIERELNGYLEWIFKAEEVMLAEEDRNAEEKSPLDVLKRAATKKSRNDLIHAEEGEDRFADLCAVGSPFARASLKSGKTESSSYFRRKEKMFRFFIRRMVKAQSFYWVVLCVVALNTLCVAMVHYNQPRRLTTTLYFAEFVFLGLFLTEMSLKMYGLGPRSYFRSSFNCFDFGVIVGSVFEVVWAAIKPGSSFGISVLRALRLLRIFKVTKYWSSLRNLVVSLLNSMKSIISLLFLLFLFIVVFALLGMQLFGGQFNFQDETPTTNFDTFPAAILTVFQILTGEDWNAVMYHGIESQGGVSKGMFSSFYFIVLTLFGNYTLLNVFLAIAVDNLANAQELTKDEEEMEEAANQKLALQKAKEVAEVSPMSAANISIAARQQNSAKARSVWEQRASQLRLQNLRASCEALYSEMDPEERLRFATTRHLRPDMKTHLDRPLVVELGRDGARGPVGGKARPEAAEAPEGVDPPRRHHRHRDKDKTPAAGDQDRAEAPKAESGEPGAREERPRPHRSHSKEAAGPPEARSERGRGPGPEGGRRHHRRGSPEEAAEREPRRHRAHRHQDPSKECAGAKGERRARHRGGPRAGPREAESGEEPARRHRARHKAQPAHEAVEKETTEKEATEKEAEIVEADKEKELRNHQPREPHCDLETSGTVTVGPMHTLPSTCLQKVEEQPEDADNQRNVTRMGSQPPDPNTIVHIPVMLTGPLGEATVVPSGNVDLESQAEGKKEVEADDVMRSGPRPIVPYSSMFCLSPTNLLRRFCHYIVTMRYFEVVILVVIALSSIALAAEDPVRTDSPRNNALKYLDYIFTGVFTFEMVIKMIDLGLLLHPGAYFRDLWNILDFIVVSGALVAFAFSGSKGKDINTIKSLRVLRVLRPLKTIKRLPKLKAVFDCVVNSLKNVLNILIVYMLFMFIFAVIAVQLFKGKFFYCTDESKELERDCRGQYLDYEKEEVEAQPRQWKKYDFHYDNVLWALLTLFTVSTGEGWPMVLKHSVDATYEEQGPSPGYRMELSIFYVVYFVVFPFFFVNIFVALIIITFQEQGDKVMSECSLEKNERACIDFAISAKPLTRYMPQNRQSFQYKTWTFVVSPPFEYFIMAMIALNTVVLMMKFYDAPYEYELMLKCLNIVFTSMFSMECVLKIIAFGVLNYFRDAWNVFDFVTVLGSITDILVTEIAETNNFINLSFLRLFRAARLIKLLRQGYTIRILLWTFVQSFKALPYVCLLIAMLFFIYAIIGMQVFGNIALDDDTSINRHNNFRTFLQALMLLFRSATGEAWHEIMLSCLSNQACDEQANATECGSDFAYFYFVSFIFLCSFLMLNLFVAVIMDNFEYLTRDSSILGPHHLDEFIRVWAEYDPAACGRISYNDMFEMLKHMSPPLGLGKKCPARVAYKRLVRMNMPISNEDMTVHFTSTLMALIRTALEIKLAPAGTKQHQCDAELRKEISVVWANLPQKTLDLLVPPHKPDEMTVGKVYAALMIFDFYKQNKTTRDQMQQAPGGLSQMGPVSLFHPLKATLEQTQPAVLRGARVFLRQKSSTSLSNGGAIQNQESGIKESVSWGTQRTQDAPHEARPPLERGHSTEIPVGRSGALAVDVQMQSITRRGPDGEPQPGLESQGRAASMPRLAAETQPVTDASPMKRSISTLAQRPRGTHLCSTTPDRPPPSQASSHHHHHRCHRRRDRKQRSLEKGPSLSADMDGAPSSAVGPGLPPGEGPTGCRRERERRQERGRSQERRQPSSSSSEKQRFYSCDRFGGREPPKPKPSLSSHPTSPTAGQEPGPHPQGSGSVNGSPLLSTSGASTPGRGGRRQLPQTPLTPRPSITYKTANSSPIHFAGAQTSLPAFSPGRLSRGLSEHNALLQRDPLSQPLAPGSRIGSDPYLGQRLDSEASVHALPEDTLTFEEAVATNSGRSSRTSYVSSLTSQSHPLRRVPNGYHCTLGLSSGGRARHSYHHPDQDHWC
T6 sequence (Q02410 whole entry): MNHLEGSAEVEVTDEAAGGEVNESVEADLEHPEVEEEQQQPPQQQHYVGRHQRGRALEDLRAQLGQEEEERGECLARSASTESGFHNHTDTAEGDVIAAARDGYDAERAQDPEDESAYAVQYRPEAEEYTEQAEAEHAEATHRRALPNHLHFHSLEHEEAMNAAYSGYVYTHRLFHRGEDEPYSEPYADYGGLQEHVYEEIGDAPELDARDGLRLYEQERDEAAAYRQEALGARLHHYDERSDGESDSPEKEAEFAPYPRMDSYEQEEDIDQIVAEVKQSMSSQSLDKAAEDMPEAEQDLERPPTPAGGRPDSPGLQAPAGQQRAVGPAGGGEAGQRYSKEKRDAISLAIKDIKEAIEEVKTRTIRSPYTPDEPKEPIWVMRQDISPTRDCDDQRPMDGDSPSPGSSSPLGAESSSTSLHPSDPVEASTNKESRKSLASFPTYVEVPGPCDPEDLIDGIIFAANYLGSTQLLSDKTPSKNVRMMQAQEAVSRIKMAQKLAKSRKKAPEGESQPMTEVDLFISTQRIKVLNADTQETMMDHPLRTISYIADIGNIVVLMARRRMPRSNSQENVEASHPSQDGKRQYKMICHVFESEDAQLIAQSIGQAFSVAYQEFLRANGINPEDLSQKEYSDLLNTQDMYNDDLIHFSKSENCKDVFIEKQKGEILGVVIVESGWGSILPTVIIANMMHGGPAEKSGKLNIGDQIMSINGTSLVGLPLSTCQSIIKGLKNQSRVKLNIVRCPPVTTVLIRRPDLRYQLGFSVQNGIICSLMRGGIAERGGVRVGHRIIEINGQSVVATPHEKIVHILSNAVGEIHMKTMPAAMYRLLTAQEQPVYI
T4 sequence (Q07440 whole entry): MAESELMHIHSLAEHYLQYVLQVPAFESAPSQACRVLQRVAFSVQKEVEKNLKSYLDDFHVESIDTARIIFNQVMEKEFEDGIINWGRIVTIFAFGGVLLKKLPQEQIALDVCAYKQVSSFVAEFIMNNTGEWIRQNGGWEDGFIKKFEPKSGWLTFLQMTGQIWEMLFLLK
Sequence of Estrogen receptor beta (Q92731 whole entry): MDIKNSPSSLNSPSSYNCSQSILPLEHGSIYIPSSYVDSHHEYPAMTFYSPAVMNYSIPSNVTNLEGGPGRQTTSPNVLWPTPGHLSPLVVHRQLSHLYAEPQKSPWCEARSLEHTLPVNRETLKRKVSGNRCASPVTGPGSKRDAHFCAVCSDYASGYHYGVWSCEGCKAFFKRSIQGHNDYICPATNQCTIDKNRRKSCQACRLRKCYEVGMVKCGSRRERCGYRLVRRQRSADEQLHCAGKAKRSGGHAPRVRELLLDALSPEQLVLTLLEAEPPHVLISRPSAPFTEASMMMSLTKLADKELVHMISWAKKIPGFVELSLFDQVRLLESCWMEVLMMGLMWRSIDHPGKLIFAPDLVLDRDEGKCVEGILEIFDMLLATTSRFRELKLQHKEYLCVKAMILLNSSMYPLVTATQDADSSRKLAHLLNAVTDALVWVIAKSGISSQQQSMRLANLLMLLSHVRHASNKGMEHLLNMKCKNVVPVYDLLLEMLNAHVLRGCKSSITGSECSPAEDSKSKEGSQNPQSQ
Sequence of Induced myeloid leukemia cell differentiation protein Mcl-1 (Q07820 whole entry): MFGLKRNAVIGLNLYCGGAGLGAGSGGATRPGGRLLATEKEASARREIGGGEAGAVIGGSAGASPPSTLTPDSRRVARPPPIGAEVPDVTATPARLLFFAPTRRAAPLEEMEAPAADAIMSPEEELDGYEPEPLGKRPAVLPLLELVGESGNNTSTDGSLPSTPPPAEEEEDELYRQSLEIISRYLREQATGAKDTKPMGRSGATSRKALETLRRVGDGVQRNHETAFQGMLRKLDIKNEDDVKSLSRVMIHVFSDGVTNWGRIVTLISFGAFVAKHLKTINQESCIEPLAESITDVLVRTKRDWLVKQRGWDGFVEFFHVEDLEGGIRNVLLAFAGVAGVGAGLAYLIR
Sequence of ATP-dependent molecular chaperone HSP82 (C4YTQ8 whole entry): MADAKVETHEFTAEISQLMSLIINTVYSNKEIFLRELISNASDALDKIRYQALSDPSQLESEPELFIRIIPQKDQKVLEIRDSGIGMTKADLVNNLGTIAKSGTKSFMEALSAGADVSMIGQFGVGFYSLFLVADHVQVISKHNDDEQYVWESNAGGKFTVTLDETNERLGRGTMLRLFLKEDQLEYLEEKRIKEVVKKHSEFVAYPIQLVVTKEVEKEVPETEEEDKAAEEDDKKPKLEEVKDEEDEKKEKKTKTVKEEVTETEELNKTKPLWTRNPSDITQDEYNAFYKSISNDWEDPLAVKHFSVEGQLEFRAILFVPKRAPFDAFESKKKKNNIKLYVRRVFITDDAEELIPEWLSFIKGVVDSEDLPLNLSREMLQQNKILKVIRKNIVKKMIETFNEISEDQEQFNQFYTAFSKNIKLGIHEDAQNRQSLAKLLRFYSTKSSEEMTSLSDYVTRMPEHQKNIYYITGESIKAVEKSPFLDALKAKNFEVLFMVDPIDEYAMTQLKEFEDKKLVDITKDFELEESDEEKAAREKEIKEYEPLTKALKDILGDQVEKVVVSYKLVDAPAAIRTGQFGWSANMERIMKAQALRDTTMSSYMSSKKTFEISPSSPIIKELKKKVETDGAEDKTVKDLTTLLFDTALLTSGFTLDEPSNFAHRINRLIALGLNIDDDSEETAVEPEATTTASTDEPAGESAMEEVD

For `O=C(CNc1ccc2ccccc2c1)N/N=C/c1ccc([N+](=O)[O-])o1`, the EC50 (Streptokinase A) was > 150 µM (not active), the EC50 [1] was > 160 µM (inactive) and the EC50 [2] was > 160 µM (inactive). For the same molecule, the EC50 [3] was > 60 µM (not active), the EC50 [4] was 3.85 µM (active) and the EC50 [5] was 14.2 µM (active). For the same molecule, the EC50 [6] was 11.1 µM (active), the EC50 [7] was < 0.1 µM (active) and the EC50 (Streptococcus) was > 150 µM (not active). For the same molecule, the EC50 [8] was > 180 µM (inactive), the EC50 [9] was 15.9 µM (active) and the EC50 (cells) was 0.019 µM (active). The AC50 [10] was 4.95 µM (active).

With `Clc1ccc(-n2nnc(-c3cc4ccccc4nc3Cl)n2)cn1` the IC50 (Bcl-2-related protein A1 [11]) was > 100 µM (not active) and the IC50 (Bcl-2-related protein A1 [12]) was > 100 µM (not active).

For `CCOc1ccc(N2CSC3=C(C#N)C(c4ccco4)CC(=O)N3C2)cc1` (stereo not drawn), the IC50 (Estrogen receptor) was > 50 µM (not active), the IC50 [13] was > 109 µM (not active) and the IC50 [14] was 9.68 µM (active). For the same molecule, the IC50 (Bcl-2-like protein 1) was > 109 µM (not active), the IC50 [15] was 21.6 µM (active) and the IC50 (Estrogen receptor beta) was > 50 µM (not active). For the same molecule, the IC50 (Large T antigen) was 13.8 µM (active).

With `Cc1ccc(C(=O)C2=C(O)C(=O)N(Cc3ccco3)C2c2cccc(Br)c2)o1` (stereo not drawn) the EC50 (Streptokinase A) was > 150 µM (not active), the EC50 [16] was 35.6 µM (active) and the EC50 [6] was 6.16 µM (active). For the same molecule, the EC50 [17] was 18.3 µM (inconclusive), the EC50 (Streptococcus) was 11.2 µM (active) and the EC50 [18] was > 300 µM (not active).
